Where a name gives a salt, the structure may show the parent alone.
What was measured:
Format in all cases: biochemical
Human recombinant MMP-9 = biological target: T1, Human recombinant MMP-9 (Homo sapiens, UniProt P14780); assay: In vitro MMP inhibition, Ki determination (fluorogenic substrate II)
T1 construct: made in house; host or cells: MMP-9-transfected HT1080 cells (spent media)
Experimental: (§1) Several hydroxamates and salts thereof were analyzed in in vitro assays to determine their ability to inhibit the MMP cleavage of peptide substrates. Inhibition (Ki) and IC50 constants were calculated from the assayed hydroxamate-MMP interactions.
(§2) Human recombinant MMP-1, MMP-2, MMP-9, MMP-13, and MMP-14 were used in this assay. All enzymes were prepared in Assignee's laboratories following usual laboratory procedures. Protocols for the preparation and use of these enzymes are available in the scientific literature. See, e.g., Enzyme Nomenclature (Academic Press, San Diego, Calif., 1992) (and the citations therein). See also, Frije et al., J. Biol. Chem., 26(24), 16766-73 (1994).
The MMP-9 proenzyme was purified by gelatin Sepharose chromatography from spent media of MMP-9-transfected HT1080 cells provided by Dr. Howard Welgus of Washington University (St. Louis, Mo.).
(§3) All MMPs were activated using 4-aminophenylmercuric acetate (“APMA”, Sigma Chemical, St. Louis, Mo.) or trypsin. MMP-9 also was activated using human recombinant MMP-3 (purified in Assignee's laboratory following standard cloning and purification techniques).
(§4) Two fluorogenic, methoxycoumarin-containing polypeptide substrates were used in the MMP inhibition assays:
(§5) MCA-ArgProLeuGlyLeuDpaAlaArgGluArgNH2 (II)
(§6) Here, “Dpa” is 3-(2,4-dinitrophenyl)-L-2,3-diaminopropionyl group, and “MCA” is 7-methoxycoumarin-4-yl acetyl. Substrate (I) was purchased from Baychem (Redwood City, Calif.), and substrate II was prepared Assignee's laboratory. Substrate I was used in the IC50 determination assays, while substrate II was used in the Ki determination assays. In the absence of MMP inhibitory activity, either substrate is cleaved at the Gly-Leu peptide bond. This cleavage separates the highly fluorogenic peptide from the 2,4-dinitrophenyl quencher, thus resulting in increase of fluorescent intensity.
(§7) The stock solutions of the assayed hydroxamates (or salts thereof) were prepared in 1% dimethyl sulfoxide (DMSO). These stock solutions were diluted in Buffer A (100 mM Tris-HCl, 100 mM NaCl, 10 mM CaCl2, 0.05% polyoxyethylene 23 lauryl ether, pH 7.5) to obtain solutions with different hydroxamate concentrations, i.e., assay solutions with different concentrations of the assayed MMP inhibitory compound. The experiment controls contained the same amount of Buffer A/DMSO as the assayed sample, but contained no hydroxamate (or salt thereof).
(§8) The assays from which the Ki determinations were made were performed as follows. The assayed hydroxamate samples were incubated in separate wells of untreated white polystyrene plates (Nunc Nalgene International, Rochester, N.Y.), and analyzed on a Tecan SpectraFlour Plus plate reader. The excitation wavelength was 330 nm, and the emission wavelength—420 nm. All samples (assayed hydroxamates and controls) were incubated in separate plate wells at room temperature for 1 hr in the presence of 4 μM of MMP substrate (II). In the absence of MMP inhibitory activity, substrate II was cleaved at the Gly-Leu bond resulting in an increase of relative fluorescence. Inhibition was observed as a reduced rate of this increase in relative fluorescence. The various hydroxamates were analyzed using a single low enzyme concentration with a single substrate concentration fixed at or below the Km. This protocol is a modification of method by Knight et al., FEBS Lett., 296(3), 263-266 (1992). Apparent inhibitory constants were determined by non-linear regression of reaction velocity as a function of inhibitor and enzyme concentration using Morrison's equation, as described by Kuzmic, Anal. Biochem. 286, 45-50 (2000). Modifications were made in the non-linear regression method to allow a common control reaction rate and effective enzyme concentration to be shared between all dose-response relationships on a given assay plate. […]

Human recombinant MMP-1 = biological target: T2, Human recombinant MMP-1 (Homo sapiens, UniProt P03956); assay: as above
T2 construct: made in house; host or cells: MMP-1-transfected HT-1080 cells (spent media)
T2 sequence (P03956 100-469): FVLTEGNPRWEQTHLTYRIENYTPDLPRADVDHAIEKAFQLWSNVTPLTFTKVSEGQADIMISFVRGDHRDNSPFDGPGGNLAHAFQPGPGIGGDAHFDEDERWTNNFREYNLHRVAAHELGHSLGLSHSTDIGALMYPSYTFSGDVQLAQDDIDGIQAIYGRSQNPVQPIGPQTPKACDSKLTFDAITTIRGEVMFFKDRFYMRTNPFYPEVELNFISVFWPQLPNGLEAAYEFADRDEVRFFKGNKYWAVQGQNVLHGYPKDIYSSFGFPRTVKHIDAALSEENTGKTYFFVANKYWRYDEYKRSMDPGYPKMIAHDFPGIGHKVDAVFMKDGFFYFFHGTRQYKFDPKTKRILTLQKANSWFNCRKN
Experimental: as §1, §2
The MMP-1 proenzyme was purified from the spent media of MMP-1-transfected HT-1080 cells provided by Dr. Harold Welgus of Washington University (St. Louis, Mo.). The protein was purified on a zinc chelating column.
as §3, §4, §5, §6, §7, §8

Human recombinant MMP-14 [1] = biological target: T3, Human recombinant MMP-14 (Homo sapiens, UniProt P50281); assay: In vitro MMP inhibition, IC50 determination (fluorogenic substrate I)
T3 construct: The catalytic domain enzyme was expressed in E. coli inclusion bodies, solubilized in urea; made in house
Summary of the method: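 IC50 came from reduced fluorescence (ex 328 nm, em 415 nm) as inhibitor concentration rose, with 4 μM substrate I cleaved at Gly-Leu. Room-temperature incubation in pH 7.5 Tris buffer with 10 mM CaCl2; the E. coli-expressed, refolded MMP-14 catalytic domain was activated with trypsin or APMA.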

Human recombinant MMP-14 [2] = biological target: T3, Human recombinant MMP-14; assay: In vitro MMP inhibition, Ki determination (fluorogenic substrate II)
Experimental: as §1, §2
The MMP-14 full length cDNA was provided by Dr. Gregory Goldberg of Washington University (St. Louis, Mo.). The catalytic domain enzyme was expressed in E. coli inclusion bodies, solubilized in urea, purified on a preparative […] reverse phase HPLC column, and then refolded in the presence of zinc acetate and purified for use.
as §3, §4, §5, §6, §7, §8

[3] = substrate (II) 4 μM, 1 hr room temperature, apparent Ki, values in parenthesis
[4] = substrate (I) 4 μM, room temperature, values not in parenthesis

T1 sequence (P14780 107-707 limits assumed): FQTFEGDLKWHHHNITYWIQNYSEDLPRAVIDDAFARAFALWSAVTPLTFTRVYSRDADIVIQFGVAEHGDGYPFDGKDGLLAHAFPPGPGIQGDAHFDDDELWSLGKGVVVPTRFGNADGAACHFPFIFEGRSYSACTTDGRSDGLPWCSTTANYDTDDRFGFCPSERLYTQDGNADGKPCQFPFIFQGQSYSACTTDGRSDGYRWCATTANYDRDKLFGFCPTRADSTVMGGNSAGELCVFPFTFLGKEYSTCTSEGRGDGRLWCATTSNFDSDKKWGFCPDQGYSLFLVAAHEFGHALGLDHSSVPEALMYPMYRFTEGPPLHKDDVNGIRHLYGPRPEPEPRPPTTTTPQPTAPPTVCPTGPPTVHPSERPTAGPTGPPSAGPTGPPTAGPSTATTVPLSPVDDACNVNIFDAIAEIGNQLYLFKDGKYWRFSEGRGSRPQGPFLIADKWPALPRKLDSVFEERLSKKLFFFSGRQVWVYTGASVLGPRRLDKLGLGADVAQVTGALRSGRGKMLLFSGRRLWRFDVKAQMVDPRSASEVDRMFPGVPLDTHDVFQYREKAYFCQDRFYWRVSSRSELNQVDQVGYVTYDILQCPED

SMILES | Ki (Human recombinant MMP-9; [3]) | Ki (Human recombinant MMP-1; [3]) | IC50 (Human recombinant MMP-14 [1]; [4]) | Ki (Human recombinant MMP-14 [2]; [3]) | Ki (Human recombinant MMP-9; value in parentheses) | Ki (Human recombinant MMP-1; value in parentheses) | Ki (Human recombinant MMP-14 [2]; value in parentheses) | other results
O=C(NO)C1(S(=O)(=O)c2ccc(OCCCc3nc(-c4ccc(OC(F)(F)F)cc4)no3)cc2)CCOCC1 [Example 31, tetrahydro-N-hydroxy-4-[[4-[3-[3[4-(trifluoromethoxy)phenyl]-1,2,4-oxadiazol-5-yl]propoxy]phenyl]sulfonyl]-2H-pyran-4-carboxamide] | 1.6 µM | > 10 µM | > 10 µM | > 10 µM |  |  |  | 
O=C(NO)C1(S(=O)(=O)c2ccc(OCCc3cccc(-c4ccccn4)c3)cc2)CCOCC1 [Example 40] | 0.585 µM | > 10 µM | > 10 µM | > 10 µM |  |  |  | 
CCN1CCC(C(=O)NO)(S(=O)(=O)c2ccc(OCCCc3nc(-c4ccc(OC(F)(F)F)cc4)no3)cc2)CC1 [Example 41, 1-ethyl-N-hydroxy 4-{[4-(3-{3-[4-(trifluoromethoxy)phenyl]-1,2,4-oxadiazol-5-yl}propoxy)phenyl]sulfonyl}piperidine-4-carboxamide Hydrochloride] | 1.47 µM | > 10 µM | > 10 µM | > 10 µM |  |  |  | 
COCCN1CCC(C(=O)NO)(S(=O)(=O)c2ccc(OCCCc3nc(-c4ccc(OC(F)(F)F)cc4)no3)cc2)CC1 [Example 42] | 0.662 µM | > 10 µM | > 10 µM | > 10 µM |  |  |  | 
CCN1CCC(C(=O)NO)(S(=O)(=O)c2ccc(OCCCc3cccc(-c4ccccc4)c3)cc2)CC1 [Example 46] | 0.418 µM | > 10 µM | > 10 µM | > 10 µM |  |  |  | 
O=C(NO)C1(S(=O)(=O)c2ccc(OCCCn3nnc(-c4ccc(OC(F)(F)F)cc4)n3)cc2)CCN(C2CC2)CC1 [Example 49] | 1.95 µM | > 10 µM | > 10 µM | > 10 µM |  |  |  | 
O=C(NO)C1(S(=O)(=O)c2ccc(OCCCc3nc(-c4ccc(OC(F)(F)F)cc4)no3)cc2)CCN(C2CC2)CC1 [Example 51, 1-cyclopropyl-N-hydroxy-4-{[4-(3-{3-[4-(trifluoromethoxy)phenyl]-1,2,4-oxadiazol-5-yl}propoxy)phenyl]sulfonyl}piperidine-4-carboxamide Hydrochloride] | 0.0987 µM | 5.16 µM | > 10 µM | 0.688 µM |  |  |  | 
O=C(NO)C1(S(=O)(=O)c2ccc(OCCCn3nnc(-c4ccc(OC(F)(F)F)cc4)n3)cc2)CCN(CC2CC2)CC1 [Example 53] | 2.9 µM | > 10 µM | > 10 µM | > 10 µM |  |  |  | 
CC(C)C(=O)c1cccc(CCCOc2ccc(S(=O)(=O)C3(C(=O)NO)CCOCC3)cc2)c1 [Example 95] |  |  |  |  |  |  |  | Ki (Human recombinant MMP-9; value in parenthesis): 0.788 µM; Ki (Human recombinant MMP-1; value in parenthesis): > 10 µM; IC50 (Human recombinant MMP-14 [1]; value outside parenthesis): > 10 µM; Ki (Human recombinant MMP-14 [2]; value in parenthesis): 5.41 µM
O=C(NO)C1(S(=O)(=O)c2ccc(OCCCc3cccc(Cc4ccccc4)c3)cc2)CCOCC1 [Example 98] |  |  |  |  |  |  |  | Ki (Human recombinant MMP-9; value in parenthesis): 1.45 µM; Ki (Human recombinant MMP-1; value in parenthesis): > 10 µM; IC50 (Human recombinant MMP-14 [1]; value outside parenthesis): > 10 µM; Ki (Human recombinant MMP-14 [2]; value in parenthesis): > 10 µM
O=C(NO)C1(S(=O)(=O)c2ccc(OCCc3cccc(-c4ccncc4)c3)cc2)CCOCC1 [Example 113] |  |  |  |  |  |  |  | Ki (Human recombinant MMP-9; value in parenthesis): 0.161 µM; Ki (Human recombinant MMP-1; value in parenthesis): > 10 µM; IC50 (Human recombinant MMP-14 [1]; value outside parenthesis): 7.72 µM; Ki (Human recombinant MMP-14 [2]; value in parenthesis): 3.48 µM
O=C(NO)C1(S(=O)(=O)c2ccc(OCCc3cccc(-c4ccccc4F)c3)cc2)CCOCC1 [Example 115] |  |  |  |  |  |  |  | Ki (Human recombinant MMP-9; value in parenthesis): 1.98 µM; Ki (Human recombinant MMP-1; value in parenthesis): > 10 µM; IC50 (Human recombinant MMP-14 [1]; value outside parenthesis): > 10 µM; Ki (Human recombinant MMP-14 [2]; value in parenthesis): > 10 µM
O=C(NO)C1(S(=O)(=O)c2ccc(OCCc3cccc(-c4ccc(F)cc4)c3)cc2)CCOCC1 [Example 123] |  |  |  |  |  |  |  | Ki (Human recombinant MMP-9; value in parenthesis): 2.13 µM; Ki (Human recombinant MMP-1; value in parenthesis): > 10 µM; IC50 (Human recombinant MMP-14 [1]; value outside parenthesis): > 10 µM; Ki (Human recombinant MMP-14 [2]; value in parenthesis): > 10 µM
O=C(NO)C1(S(=O)(=O)c2ccc(OCCCc3cccc(-c4ccc5ccccc5c4)c3)cc2)CCOCC1 [Example 629] |  |  |  |  | 1.3 µM | > 10 µM | > 10 µM | 
O=C(NO)C1(S(=O)(=O)c2ccc(OCCCc3cccc(-c4csc5ccccc45)c3)cc2)CCOCC1 [Example 631] |  |  |  |  | 5.81 µM | > 10 µM | > 10 µM | 
O=C(NO)C1(S(=O)(=O)c2ccc(OCCCc3cccc(-c4cc5ccccc5s4)c3)cc2)CCOCC1 [Example 633] |  |  |  |  | 6.78 µM | > 10 µM | > 10 µM | 
O=C(NO)C1(S(=O)(=O)c2ccc(OCCCc3cccc(-c4coc5ccccc45)c3)cc2)CCOCC1 [Example 634] |  |  |  |  | 1.3 µM | > 10 µM | > 10 µM | 
C=Cc1ccc(-c2cccc(CCCOc3ccc(S(=O)(=O)C4(C(=O)NO)CCOCC4)cc3)c2)cc1 [Example 635] |  |  |  |  | 4.83 µM | > 10 µM | > 10 µM | 
O=C(NO)C1(S(=O)(=O)c2ccc(OCCCc3cccc(-c4ccccc4O)c3)cc2)CCOCC1 [Example 636] |  |  |  |  | 0.763 µM | > 10 µM | > 10 µM | 
O=C(NO)C1(S(=O)(=O)c2ccc(OCCCc3cccc(-c4cccc5ccccc45)c3)cc2)CCOCC1 [Example 638] |  |  |  |  | 8.77 µM | > 10 µM | > 10 µM | 
Cc1ccc(-c2cccc(CCCOc3ccc(S(=O)(=O)C4(C(=O)NO)CCOCC4)cc3)c2)s1 [Example 639] |  |  |  |  | 0.688 µM | > 10 µM | > 10 µM | 

Reference: patent publication US20040024024A1, “Aromatic sulfone hydroxamates and their use as protease inhibitors” (priority 2001, published 2004)
